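Values below derive from 48-hour exposures of cells grown in 96-well plates, with endpoints linearly interpolated between the two concentrations bracketing the appropriate inhibition level. TGI: concentration producing complete growth inhibition.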
Columns and labels:
Test in all cases: NCI tumour cell line growth inhibition, 48 h
SK-MEL-2 melanoma = system: SK-MEL-2 melanoma
M19-MEL melanoma = system: M19-MEL melanoma
MOLT-4 leukemia = system: MOLT-4 leukemia
NCI-H522 lung = system: NCI-H522 lung
CCRF-CEM leukemia = system: CCRF-CEM leukemia
HL-60(TB) leukemia = system: HL-60(TB) leukemia
NCI-H23 lung = system: NCI-H23 lung
UACC-62 melanoma = system: UACC-62 melanoma
SNB-19 CNS = system: SNB-19 CNS
HOP-92 NSCLC = system: HOP-92 NSCLC
HT29 colon = system: HT29 colon
MALME-3M melanoma = system: MALME-3M melanoma
U251 CNS = system: U251 CNS
RXF-631 renal = system: RXF-631 renal
RXF 393 renal = system: RXF 393 renal
A549 NSCLC = system: A549 NSCLC
SW-620 colon = system: SW-620 colon
TK-10 renal = system: TK-10 renal
OVCAR-4 ovarian = system: OVCAR-4 ovarian
K-562 leukemia = system: K-562 leukemia
SN12C renal = system: SN12C renal
HOP-18 NSCLC = system: HOP-18 NSCLC
LXFL 529 NSCLC = system: LXFL 529 NSCLC
OVCAR-3 ovarian = system: OVCAR-3 ovarian
DMS 273 small cell lung = system: DMS 273 small cell lung
RPMI-8226 leukemia = system: RPMI-8226 leukemia
SK-OV-3 ovarian = system: SK-OV-3 ovarian
HCT-15 colon = system: HCT-15 colon
M14 melanoma = system: M14 melanoma
SK-MEL-5 melanoma = system: SK-MEL-5 melanoma
DLD-1 colon = system: DLD-1 colon
ACHN renal = system: ACHN renal
OVCAR-8 ovarian = system: OVCAR-8 ovarian
A498 renal = system: A498 renal
OVCAR-5 ovarian = system: OVCAR-5 ovarian
EKVX NSCLC = system: EKVX NSCLC
CAKI-1 renal = system: CAKI-1 renal
SK-MEL-28 melanoma = system: SK-MEL-28 melanoma
SF-295 CNS = system: SF-295 CNS
SF-539 CNS = system: SF-539 CNS
LOX IMVI melanoma = system: LOX IMVI melanoma
IGROV1 ovarian = system: IGROV1 ovarian
SNB-75 CNS = system: SNB-75 CNS
KM12 colon = system: KM12 colon
SF-268 CNS = system: SF-268 CNS
KM20L2 colon = system: KM20L2 colon
NCI-H460 lung = system: NCI-H460 lung
786-0 renal = system: 786-0 renal
COLO 205 colon = system: COLO 205 colon
XF 498 CNS = system: XF 498 CNS
UO-31 renal = system: UO-31 renal

SMILES: CCCCCCCCNC(=O)SCCCC
- TGI (SK-MEL-2 melanoma): 56.2 µM
- TGI (M19-MEL melanoma): > 100 µM
- TGI (MOLT-4 leukemia): 84.9 µM
- TGI (NCI-H522 lung): 76.7 µM
- TGI (CCRF-CEM leukemia): 69 µM
- TGI (HL-60(TB) leukemia): 43.7 µM
- TGI (NCI-H23 lung): > 100 µM
- TGI (UACC-62 melanoma): > 100 µM
- TGI (SNB-19 CNS): 87.9 µM
- TGI (HOP-92 NSCLC): 49 µM
- TGI (HT29 colon): 59.4 µM
- TGI (MALME-3M melanoma): 63.1 µM
- TGI (U251 CNS): > 100 µM
- TGI (RXF-631 renal): > 100 µM
- TGI (RXF 393 renal): 68 µM
- TGI (A549 NSCLC): > 100 µM
- TGI (SW-620 colon): > 100 µM
- TGI (TK-10 renal): > 100 µM
- TGI (OVCAR-4 ovarian): > 100 µM
- TGI (K-562 leukemia): > 100 µM
- TGI (SN12C renal): > 100 µM
- TGI (HOP-18 NSCLC): > 100 µM
- TGI (LXFL 529 NSCLC): > 100 µM
- TGI (OVCAR-3 ovarian): > 100 µM
- TGI (DMS 273 small cell lung): > 100 µM
- TGI (RPMI-8226 leukemia): 58.7 µM
- TGI (SK-OV-3 ovarian): > 100 µM
- TGI (HCT-15 colon): > 100 µM
- TGI (M14 melanoma): > 100 µM
- TGI (SK-MEL-5 melanoma): 44.4 µM
- TGI (DLD-1 colon): > 100 µM
- TGI (ACHN renal): > 100 µM
- TGI (OVCAR-8 ovarian): > 100 µM
- TGI (A498 renal): > 100 µM
- TGI (OVCAR-5 ovarian): > 100 µM
- TGI (EKVX NSCLC): 80.1 µM
- TGI (CAKI-1 renal): 61.9 µM
- TGI (SK-MEL-28 melanoma): > 100 µM
- TGI (SF-295 CNS): > 100 µM
- TGI (SF-539 CNS): > 100 µM
- TGI (LOX IMVI melanoma): 39.2 µM
- TGI (IGROV1 ovarian): > 100 µM
- TGI (SNB-75 CNS): 68.8 µM
- TGI (KM12 colon): > 100 µM
- TGI (SF-268 CNS): > 100 µM
- TGI (KM20L2 colon): > 100 µM
- TGI (NCI-H460 lung): 82.2 µM
- TGI (786-0 renal): > 100 µM
- TGI (COLO 205 colon): > 100 µM
- TGI (XF 498 CNS): 37.5 µM
- TGI (UO-31 renal): 65.1 µM

Source: PubChem BioAssay (NCI)
